Assay results from patent US5589497A, “Phenylimidazolidines” (Uclaf; Roussel, priority 1992, dated 1996).

Biological target: T1, androgenic receptors (rat prostate cytosol) (Rattus norvegicus, UniProt P15207)
T1 construct: from tissue; host or cells: prostate cytosol (209,000 g supernatant) of castrated male Sprague Dawley EOPS rats
T1 sequence (P15207 1-902): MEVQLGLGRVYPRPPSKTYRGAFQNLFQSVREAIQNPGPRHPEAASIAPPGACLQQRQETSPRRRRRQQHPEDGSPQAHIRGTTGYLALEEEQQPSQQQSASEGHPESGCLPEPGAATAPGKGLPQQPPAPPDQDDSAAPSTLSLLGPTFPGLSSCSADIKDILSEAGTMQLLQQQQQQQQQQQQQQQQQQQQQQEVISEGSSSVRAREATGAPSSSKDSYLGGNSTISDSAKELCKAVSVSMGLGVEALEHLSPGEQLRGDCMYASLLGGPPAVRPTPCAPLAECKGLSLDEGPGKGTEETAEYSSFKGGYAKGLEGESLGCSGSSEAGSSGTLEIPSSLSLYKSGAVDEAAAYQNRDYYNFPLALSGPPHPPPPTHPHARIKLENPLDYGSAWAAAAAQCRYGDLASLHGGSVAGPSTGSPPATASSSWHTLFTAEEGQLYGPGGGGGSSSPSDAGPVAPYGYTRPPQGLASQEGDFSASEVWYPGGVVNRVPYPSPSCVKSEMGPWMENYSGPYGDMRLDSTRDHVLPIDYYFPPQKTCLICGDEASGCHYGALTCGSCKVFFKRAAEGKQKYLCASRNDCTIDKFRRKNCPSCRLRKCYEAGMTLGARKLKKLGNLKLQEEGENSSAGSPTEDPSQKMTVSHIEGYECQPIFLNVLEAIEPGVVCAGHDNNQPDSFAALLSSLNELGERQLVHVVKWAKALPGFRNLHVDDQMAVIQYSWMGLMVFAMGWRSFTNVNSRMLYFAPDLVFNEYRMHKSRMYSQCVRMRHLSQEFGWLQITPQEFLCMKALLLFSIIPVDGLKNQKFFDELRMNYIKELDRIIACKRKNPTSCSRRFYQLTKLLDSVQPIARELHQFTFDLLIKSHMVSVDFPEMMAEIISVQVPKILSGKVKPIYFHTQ
Assay: Study of androgenic receptors: relative binding affinity (RBA) versus tritiated testosterone in prostate cytosol of castrated rats
Set-up: species or system male rats of the Sprague Dawley EOPS strain
Settings: 24 H incubation; testosterone=100; RBA=100(CH)/(CX)
Experimental: Male rats of the Sprague Dawley EOPS strain weighing 180 to 200 g, castrated 24 hours previously, were killed and the prostate was removed, weighed and homogenized at 0° C. with a potter glass in a buffered solution (Tris 10 mM, saccharose 0.25M, PMSF (phenyl methane sulfonyl fluoride) 0.1 mM, sodium molybdate 20 mM, HCl pH 7.4 into which was added extemporaneously […] of DTT (DL dithiothreitol) at a rate of 1 g of tissue per 8 ml of buffer solution. The homogenate was then ultracentrifuged at 0° C. for 30 minutes at 209,000 g and the aliquots of supernatant (=cytosol) were incubated for 30 minutes and 24 hours with a concentration (T) of tritiated testosterone and in the presence of increasing concentrations (0 to 2500×10^-9 M) of cold testosterone or the test products. The concentration of bound tritiated testosterone (B) was then measured for each incubate by adsorption method of carbon-dextran. The relative affinity of bonding (RBA) was calculated.
The following two curves were graphed: the percentage of the bound tritiated hormone B/T as a logarithmic function of the concentration of the cold hormone and B/T as a logarithmic function of the concentration of the tested cold product. The line of the equation I50 =(B/Tmax+B/Tmin)/2 was determined.
B/T max=% of the bound tritiated hormone for an incubation of this tritiated hormone at concentration (T). […]

| Compound | relative affinity of bonding (RBA) |
| --- | --- |
| CN1C(=S)N(c2ccc(C#N)c(C(F)(F)F)c2)C(=O)C12CCCC2 [Example 3, 4-(1-methyl-4-oxo-2-thioxo-1,3-diazaspiro(4,4)nonan-3-yl)-2-trifluoromethyl-benzonitrile] | 27 |
| CCC1(CC)C(=O)N(c2ccc(C#N)c(C(F)(F)F)c2)C(=S)N1C [Example 5, 4-(4,4-diethyl-3-methyl-5-oxo-2-thioxo-1-imidazolidinyl)-2-trifluoromethyl-benzonitrile] | 8 |
